Results on four molecules are retold here after patent publication US9890368B2, “Polypeptide fragments comprising endonuclease activity and their use” (priority 2008, dated 2018).

In one test the target is PA-Nter (SEQ ID NO: 22) (Influenza A virus, UniProt P31343, G154E). Format: binding, Influenza A virus A/Victoria/3/1975 (H3N2).
Test [1] concerns the target PA-Nter (SEQ ID NO: 22) endonuclease (Influenza A virus, UniProt P31343, G154E). Format: biochemical, Influenza A virus A/Victoria/3/1975 (H3N2).

Consider manganese ions, for which, on PA-Nter (SEQ ID NO: 22), the apparent melting temperature came out at 57 °C. As to calcium, on PA-Nter (SEQ ID NO: 22), the “increase in thermal stability upon addition of divalent cation” value was “to a lesser extent”. As for `O=C(O)C(=O)CC(=O)c1ccccc1` [DPBA, 2,4-Dioxo-4-phenylbutanoic acid], the “inhibition of endonuclease activity on both RNA and DNA” value in test [1] is given as “inhibited in a dose dependent manner”. Also, on PA-Nter (SEQ ID NO: 22), the apparent melting temperature came out at 65 °C, the “effect on thermal stability of metal-free enzyme” value is reported as “no effect” and the “thermal stability of PA-Nter in the presence of MnCl2” value is given as “further stabilizes”. Turning to magnesium ions, the “increase in thermal stability upon addition of divalent cation” value on PA-Nter (SEQ ID NO: 22) is “to a lesser extent”.
